# Experimental data from US20030199457A1, “Prevention and treatment of thromboembolic disorders associated with arterial & venous thrombosis” (priority 2002, published 2003).
# Key:
# thrombosis = settings: U.S. Pat. No. 6,103,705, cited from earlier work
# [1] = tested on: TF-induced clot formation/strength; assay: Tissue factor-triggered thrombelastography (TEG), clot strength; assay type: cell-based; settings: GPIIb/IIIa antagonists added to TEG cup with CaCl2 and TF; mimics platelet removal from whole blood
# Procedure: Thrombelastography: Clot formation was monitored at 37° C. in an oscillating plastic cylindrical cuvette (“cup”) and a coaxially suspended stationary piston (“pin”) with a 1 mm clearance between the surfaces, using a computerized Thrombelastograph (CTEG Model 3000, Haemoscope, Skokie, Ill.) as described by Mousa et al., Athero Thromb Vasc Biol 2000. The cup oscillates 4°45′ ( 1/12 radian) in either direction every 4.5 seconds, with a 1 second mid-cycle stationary period; resulting in a frequency of 0.1 Hz and a maximal shear rate of 0.1 per second. The pin is suspended by a torsion wire that acts as a torque transducer. […] The torque experienced by the pin (relative to the cup's oscillation) is plotted as a function of time (Essel et al., J Cardiovascular Anesth., 7:410-415, 1993; Mousa et al., Arteriosclerosis Thromb Vasc Biol., 20:1162-1167, 2000). The amplitude on the TEG tracing is a measure of the rigidity of the clot; the peak strength or the shear elastic modulus attained by the clot, G, is a function of clot rigidity and can be calculated from the maximal amplitude (MA) of the TEG (Mousa et al., Arteriosclerosis Thromb Vasc Biol., 20:1162-1167, 2000).
# Platelet Contribution to Clot Strength: To assess the effect of the TF modification on peak clot strength (G) was measured with and without the addition of TF in paired samples of WB and PRP. To document the contribution of activated platelets to the elastic modulus of fibrin clots, the effect of platelet number was measured by serially diluting PRP with PPP. The platelet count of each dilution was measured before performing TEG. Tissue factor-triggered TEG was performed with increasing concentrations added to the TEG cups. […] The Thrombelastograph maximum amplitude (MA) for platelets MA (PLT)) was calculated by subtracting the MA from a platelet-poor plasma (PPP) sample MA (PPP) determined in one TEG well from that of whole blood MA (WB) run simultaneously in the second TEG well.
# platelet aggregation = settings: combined with LMWH; 0.5 IU/ml thrombin; cited from earlier work
molecule,measurement,setting,value
CCCCS(=O)(=O)N[C@@H](Cc1ccc(OCCCCC2CCNCC2)cc1)C(=O)O [BSPBPA],anti-thrombotic effect on co-administration with the LMWH enoxaparin,"thrombosis; intravenous, sub-effective or reduced levels",enhanced anti-thrombotic effect
same,anti-thrombotic effect on co-administration with standard heparin,thrombosis; same reduced level of the GPIIb/IIIa antagonist,This was not the case
CCCCOC(=O)N[C@@H](CNC(=O)C[C@H]1CC(c2ccc(C(=N)N)cc2)=NO1)C(=O)OC [roxifiban],maximal blockade (clot strength),[1],80%
same,effect of sub-therapeutic concentrations on the dose-response relationship of LMWH,platelet aggregation,significant enhancement (synergy) of anti-thrombotic efficacy
CCCCOC(=O)N[C@@H](CNC(=O)C[C@H]1CC(c2ccc(C(=N)N)cc2)=NO1)C(=O)O [XV459],maximal blockade (clot strength),[1],80%
"Abciximab: monoclonal antibody for GPIIb/IIIa (c7E3 Fab) (antibody, chains of the INN, looked up, V domains shown, Fab) VH: EVQLQQSGTVLARPGASVKMSCEASGYTFTNYWMHWVKQRPGQGLEWIGAIYPGNSDTSYIQKFKGKAKLTAVTSTTSVYMELSSLTNEDSAVYYCTLYDGYYVFAYWGQGTLVTVSA VL: EIVLTQSPVTLSVTPGDSVSLSCRASRDISNNLHWFQQTSHESPRLLIKYASQSMSGIPSRFSGSGSGTDFTLSINSVETEDFGMYFCQQTNSWPYTFGGGTKLEIK",maximal blockade (clot strength),[1],80%
same,effect of sub-therapeutic concentrations on the dose-response relationship of LMWH,platelet aggregation,significant enhancement (synergy) of anti-thrombotic efficacy
